# Read-outs that look alike come from different tables or passages of the source. *1 amine or outer side, *2 acyl side, *3 side chain or, on linkers, in order; H or OH if unused. Where a SMILES comes first, the peptide text is derived from it. Bridges are numbered along the chain shown (N, C = ends). Roman numbers before positions name the chains, in order. [ ]: non-standard residue; d: D form. The star is where a group is joined. X5 = C#CCOCCOCCOCCOCCN1C[C@@H](C(=O)[*:1])[C@H](C(=O)[*:2])C1; X2 = O=C([C@@H](N[*:1])[C@H](O)CCC(F)(F)F)[*:2]; Propargyl(OCH2CH2)4CO = C#CCOCCOCCOCCOCCC(=O)*; X3 = CCCCC[C@@H](O)[C@H](N[*:1])C(=O)[*:2]; azaDab = NCCN(N[*:1])C(=O)[*:2]; Aoc(2) = CCCCCC[C@H](N)C(=O)O; hLeu = CC(C)CC[C@H](N)C(=O)O; Nle = CCCC[C@H](N)C(=O)O; Dab = NCC[C@H](N)C(=O)O; azaGly = NNC(=O)O
# Columns and labels:
# [1] = tested on: Ab AB58705 (COL^R) IpxD, mut. (no LPS); assay type: cell-based, Acinetobacter baumannii; conditions: media CA-MHB
# Ab 8990 (COL^R) = assay type: cell-based, Acinetobacter baumannii
# Method in brief: (§1)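 Twofold dilution series of each agent received bacterial cells from MHA plates (saline, ~0.1 OD600 nm), with RPMI B medium used for drug conjugates. Plates were shaken and held at 35° C overnight (16-20 h). LES431 was tested in presence and absence of 50% heat-inactivated fetal bovine serum.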
# Ab AB5075 = assay type: cell-based, Acinetobacter baumannii; conditions: for MIC in RPMI AB 5075: pH 7.4
# Method in brief: as §1
# Pa 27853 = assay type: cell-based, Pseudomonas aeruginosa
# Method in brief: as §1
# Pa LES431 = assay type: cell-based, Pseudomonas aeruginosa
# Method in brief: as §1
# Pa PAO1 = assay type: cell-based, Pseudomonas aeruginosa; conditions: for MIC in RPMI PA 01: PAO1, pH 7.4
# Method in brief: as §1
# LPS from E. coli O111:B4 = test: LPS binding/neutralization by Limulus Amebocyte Lysate (LAL) assay; assay type: biochemical; conditions: LPS 1-10,000 ng/mL, test article 0.25-10 μM; sum of AUCs relative to maximal AUC (Table 15)
# Protocol: The LAL assay (Charles River) was used to determine the binding affinity of test articles to LPS.
# (§2) For the assay, 25 μL purified LPS from E. coli O111:1B4 (Sigma) at doses ranging from 1-10,000 ng/mL were incubated with 25 μL of test article at concentrations ranging from 0.25-10 NM. After 5 min incubation at 37° C., 50 μL of LAL reagent, which reacts with lipid A portion from LPS, was added to corresponding wells. After 15 min, absorbance at 405 nm was read on EnSpire plate reader (Perkin Elmer). The % LPS neutralization is calculated relative to a PBS control (background) and LPS control at each concentration (positive control).
# LPS neutralization=(1−(absorbance test article−PBS with LAL reagent)/(absorbance no test article−PBS with LAL reagent))×100
# To obtain a single value of LPS neutralization for each test article, the area under the curve (AUC) for dose-response of test articles from […] for each LPS concentration was calculated using Prism 7 software. The % LPS neutralization is the sum of the AUCs for each LPS concentration determined relative to the maximal AUC achievable×100.
# as §2, with “O111:B4” for “O111:1B4”, “μM.” for “NM.”
SMILES,MIC [1] [µg/mL],"MIC (Ab 8990 (COL^R); Ab 8990 (COL^R), media CA-MHB) [µg/mL]","MIC (Ab AB5075; Ab AB5075, media CA-MHB) [µg/mL]","MIC (Pa 27853; Pa 27853, media CA-MHB) [µg/mL]","MIC (Pa LES431; Pa LES431 + FBS (50%, heat-inactivated), media CA-MHB) [µg/mL]","MIC (Pa LES431; Pa LES431, media CA-MHB) [µg/mL]","MIC (Pa PAO1; Pa PAO1, media CA-MHB) [µg/mL]",% LPS neutralization (LPS from E. coli O111:B4) [%],MIC (Ab AB5075) [µg/mL],MIC in RPMI AB 5075 (Ab AB5075) [µg/mL],MIC (Pa 27853) [µg/mL],MIC (Pa LES431) [µg/mL],MIC (Pa PAO1; PAO1) [µg/mL],MIC in RPMI PA 01 (Pa PAO1) [µg/mL],MIC (Ab 8990 (COL^R)) [µg/mL]
"C#CCOCCOCCOCCOCCN1C[C@@H](C(=O)N[C@@H](CCCC)C(=O)N[C@@H](CCN)C(=O)N[C@H](C(=O)NNC(=O)N[C@H]2CCNC(=O)[C@H]([C@@H](C)O)NC(=O)[C@H](CCN)NC(=O)[C@H](CCN)NC(=O)[C@H](CC(C)C)NC(=O)[C@@H](Cc3ccccc3)NC(=O)[C@H](CCN)NC2=O)[C@@H](C)O)[C@H](C(=O)N[C@@H](CCCC)C(=O)N[C@@H](CCN)C(=O)N[C@H](C(=O)NNC(=O)N[C@H]2CCNC(=O)[C@H]([C@@H](C)O)NC(=O)[C@H](CCN)NC(=O)[C@H](CCN)NC(=O)[C@H](CC(C)C)NC(=O)[C@@H](Cc3ccccc3)NC(=O)[C@H](CCN)NC2=O)[C@@H](C)O)C1 [Int-120] (I: [Nle][Dab]T[azaGly][Dab][Dab][dF]L[Dab][Dab]T / II: [Nle][Dab]T[azaGly][Dab][Dab][dF]L[Dab][Dab]T; lactam I:5-I:C, II:5-II:C; linker I:N-II:N via X5)",4,>128,2,4,8,2,4,68.0,,,,,,,
C#CCOCCOCCOCCOCCC(=O)N[C@@H](CCC(C)C)C(=O)N[C@@H](CCN)C(=O)N[C@H](C(=O)NN(CCN)C(=O)N[C@H]1CCNC(=O)[C@H]([C@@H](C)O)NC(=O)[C@H](CCN)NC(=O)[C@H](CCN)NC(=O)[C@H](CC(C)C)NC(=O)[C@@H](Cc2ccccc2)NC(=O)[C@H](CCN)NC1=O)[C@@H](C)O [Int-127] ({Propargyl(OCH2CH2)4CO}-[hLeu][Dab]T[azaDab][Dab][Dab][dF]L[Dab][Dab]T; lactam 5-C),64,>128,,,,,,13.0,2,1.00,2,1,2,3.99,
C#CCOCCOCCOCCOCCC(=O)N[C@@H](CCCCCC)C(=O)N[C@@H](CCN)C(=O)N[C@H](C(=O)NN(CCN)C(=O)N[C@H]1CCNC(=O)[C@H]([C@@H](C)O)NC(=O)[C@H](CCN)NC(=O)[C@H](CCN)NC(=O)[C@H](CC(C)C)NC(=O)[C@@H](Cc2ccccc2)NC(=O)[C@H](CCN)NC1=O)[C@@H](C)O [Int-129] ({Propargyl(OCH2CH2)4CO}-[Aoc(2)][Dab]T[azaDab][Dab][Dab][dF]L[Dab][Dab]T; lactam 5-C),,,,,,,,23.0,2,,4,2,8,,128
C#CCOCCOCCOCCOCCC(=O)N[C@@H](CCCCCC)C(=O)N[C@@H](CCN)C(=O)N[C@H](C(=O)N[C@@H](CCN)C(=O)N[C@H]1CCNC(=O)[C@H]([C@@H](C)O)NC(=O)[C@H](CCN)NC(=O)[C@H](CCN)NC(=O)[C@H](CC(C)C)NC(=O)[C@@H](Cc2ccccc2)NC(=O)[C@H](CCN)NC1=O)[C@H](O)CCC(F)(F)F [Int-118] ({Propargyl(OCH2CH2)4CO}-[Aoc(2)][Dab][X2][Dab][Dab][Dab][dF]L[Dab][Dab]T; lactam 5-C),,,,,,,,59.0,1,0.95,2,1,2,3.81,128
C#CCOCCOCCOCCOCCC(=O)N[C@@H](CCC(C)C)C(=O)N[C@@H](CCN)C(=O)N[C@H](C(=O)NNC(=O)N[C@H]1CCNC(=O)[C@H]([C@@H](C)O)NC(=O)[C@H](CCN)NC(=O)[C@H](CCN)NC(=O)[C@H](CC(C)C)NC(=O)[C@@H](Cc2ccccc2)NC(=O)[C@H](CCN)NC1=O)[C@H](O)CCCCC [Int-116] ({Propargyl(OCH2CH2)4CO}-[hLeu][Dab][X3][azaGly][Dab][Dab][dF]L[Dab][Dab]T; lactam 5-C),64,>128,,,,,,33.2,1,1.05,4,4,4,8.41,

# Reference: patent US20230165970A1, “COMPOSITIONS AND METHODS FOR THE TREATMENT OF BACTERIAL INFECTIONS” (priority 2017, published 2023)
